Data set [1] has as its target hERG channel (Homo sapiens, UniProt Q12809). Nature of the data set: in vitro. The settings on record: Average inhibition rate (%) on hERG channel. The text has this:
In cardiomyocytes, inhibition of the delayed rectifier potassium current (IKr) channel protein encoded by the human Ether-a-go-go Related Gene (hERG) is the most important mechanism by which drugs lead to prolongation of the QT interval. hERG is characterized by a specific molecular structure, which allows it to be inhibited by different structures, leading to severe arrhythmias. Statistically, 25-40% of lead compounds show varying degrees of hERG-related toxicity. Therefore, early evaluation of the effects of compounds on hERG is crucial in the drug development process.
The inhibition rate of compounds on hERG channels was examined by manual membrane clamp technique on HEK293 cell line which is stably expressing hERG ion channels.
(Block of hERG is tested as a sign of cardiac risk.)

The subject of data set [2] is histamine-induced scratching. Nature of the data set: Antipruritic ability, histamine-induced scratching in mice. It is filed as in vivo, C57BL/6J mice. As to conditions: for number of histamine-induced scratched in mice: 10 mg/kg; for antipruritic effect compared with positive control dexamethasone: 10 mg/kg vs dexamethasone 3 mg/kg; for Inhibition Rate (%) of number of scratches: BIOS-B-12 10 mg/kg 4 h, BIOS-B-18 10 mg/kg 1 h, Dex 3 mg/kg 1 h before histamine 500 μg/50 μL s.c., observed 30 min, (Model-Compound)/Model×100%. As for the experimental part:
The C57BL/6J male mice, with 6-8 weeks old, were randomly divided into model group (Model), BIOS-B-12 compound group (10 mg/kg), BIOS-B-18 compound group (10 mg/kg) and dexamethasone group (Dex, 3 mg/kg), with 7 animals in each group. The mice were injected subcutaneously with 500 μg/50 μL histamine at the back of the neck after the administration of dexamethasone for 1 h, BIOS-B-12 for 4 h, and BIOS-B-18 for 1 h, respectively, and immediately observed for 30 min. The number of scratched was recorded and the inhibition rate was calculated as (Model-Compound)/Model×100%.

The target of data set [3] is histamine H3 receptor (Homo sapiens, UniProt Q9Y5N1). Nature of the data set: FLPPR assay, antagonistic activity on histamine H3 receptor. The format is cell-based. The settings on record: for inhibition at 0.005 µM: read-out: % Inh-AVERAGE @ 5 nM; for inhibition at 0.05 µM: read-out: % Inh-AVERAGE @ 50 nM. Here is the method:
The FLPPR assay (NIH Assay Guidance Manual: HTS Assay Validation-Section 4.3. Analysis (Potency), htpps://www.ncbi.nlm.nih.gov/books/NBK83783) was performed using SUVN-G3031 as a positive control, and 21 target compounds were tested for the antagonistic activity target to histamine H3 receptor.

Data set [4] has as its system CCI model rats. The data set can be described thus: Analgesic effect, chronic constriction injury (CCI) model, mechanical withdrawal threshold. It is filed as in vivo, SD rats. The text has this:
Exposing the sciatic nerve on male SD rats' (180-200 g) right hind leg, in the anterior segment where the sciatic nerve is about to bifurcate, use sterile chromic gut thread (No. 4, 0.15 mm in diameter) to ligate 4 loops loosely, with each loop 1-2 mm apart, and suture the muscle and skin to establish the chronic constriction injury (CCI) model. In the sham-operated group, only the sciatic nerve was exposed without ligation, and the muscle and skin were sutured. The mechanical withdrawal threshold was detected by electronic analgesia meter (IITC-2391) on the 7th day for 2 consecutive days.
The CCI model rats with stabilized mechanical withdrawal thresholds were randomly divided into five groups, named model group (model), pregabalin group (Pre, 30 mg/kg), BIOS-B-12 compound group (3 mg/kg), BIOS-B-12 compound group (1 mg/kg), and BIOS-B-12 compound group (0.3 mg/kg), and were administered at 1 mL/100 g by gavage, and the same column of saline was gavaged in Sham an model group. The basic value was determined before drug administration, and the mechanical withdrawal thresholds were detected at 0.5 h, 1 h, 2 h, 4 h, 6 h, and 24 h after a single drug administration, and the p value was calculated by ANOVA with T-test.
The CCI model rats with stabilized mechanical withdrawal thresholds were randomly divided into three groups, named model group (model), pregabalin group (Pre, 30 mg/kg), and BIOS-B-14 compound group (1 mg/kg), and were administered at 1 mL/100 g by gavage, and the same column of saline was gavaged in Sham and model group. The basic value was determined before drug administration, and the mechanical withdrawal thresholds were detected at 0.5 h, 1 h, 2 h, 4 h, and 6 h after a single drug administration, and the p value was calculated by ANOVA with T-test.

[5] abbreviates: BIOS-B-12 3, 1, 0.3 mg/kg vs pregabalin 30 mg/kg, FIG. 1 study.

Each structure is given as a SMILES string.

histamine H3 receptor, sequence (Q9Y5N1 whole entry, species assumed): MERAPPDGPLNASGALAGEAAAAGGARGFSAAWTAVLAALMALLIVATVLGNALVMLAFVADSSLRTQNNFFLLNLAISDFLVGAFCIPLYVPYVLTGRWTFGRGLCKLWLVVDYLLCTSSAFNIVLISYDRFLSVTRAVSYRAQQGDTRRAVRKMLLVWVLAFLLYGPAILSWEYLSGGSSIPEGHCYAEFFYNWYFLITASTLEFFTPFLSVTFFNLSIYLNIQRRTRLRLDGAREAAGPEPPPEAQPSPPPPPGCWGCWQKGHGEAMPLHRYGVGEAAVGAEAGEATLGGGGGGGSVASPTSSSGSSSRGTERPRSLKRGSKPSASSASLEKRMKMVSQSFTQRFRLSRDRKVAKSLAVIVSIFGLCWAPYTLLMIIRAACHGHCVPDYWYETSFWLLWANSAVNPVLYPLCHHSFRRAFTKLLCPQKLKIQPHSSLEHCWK
hERG channel, sequence (Q12809 whole entry): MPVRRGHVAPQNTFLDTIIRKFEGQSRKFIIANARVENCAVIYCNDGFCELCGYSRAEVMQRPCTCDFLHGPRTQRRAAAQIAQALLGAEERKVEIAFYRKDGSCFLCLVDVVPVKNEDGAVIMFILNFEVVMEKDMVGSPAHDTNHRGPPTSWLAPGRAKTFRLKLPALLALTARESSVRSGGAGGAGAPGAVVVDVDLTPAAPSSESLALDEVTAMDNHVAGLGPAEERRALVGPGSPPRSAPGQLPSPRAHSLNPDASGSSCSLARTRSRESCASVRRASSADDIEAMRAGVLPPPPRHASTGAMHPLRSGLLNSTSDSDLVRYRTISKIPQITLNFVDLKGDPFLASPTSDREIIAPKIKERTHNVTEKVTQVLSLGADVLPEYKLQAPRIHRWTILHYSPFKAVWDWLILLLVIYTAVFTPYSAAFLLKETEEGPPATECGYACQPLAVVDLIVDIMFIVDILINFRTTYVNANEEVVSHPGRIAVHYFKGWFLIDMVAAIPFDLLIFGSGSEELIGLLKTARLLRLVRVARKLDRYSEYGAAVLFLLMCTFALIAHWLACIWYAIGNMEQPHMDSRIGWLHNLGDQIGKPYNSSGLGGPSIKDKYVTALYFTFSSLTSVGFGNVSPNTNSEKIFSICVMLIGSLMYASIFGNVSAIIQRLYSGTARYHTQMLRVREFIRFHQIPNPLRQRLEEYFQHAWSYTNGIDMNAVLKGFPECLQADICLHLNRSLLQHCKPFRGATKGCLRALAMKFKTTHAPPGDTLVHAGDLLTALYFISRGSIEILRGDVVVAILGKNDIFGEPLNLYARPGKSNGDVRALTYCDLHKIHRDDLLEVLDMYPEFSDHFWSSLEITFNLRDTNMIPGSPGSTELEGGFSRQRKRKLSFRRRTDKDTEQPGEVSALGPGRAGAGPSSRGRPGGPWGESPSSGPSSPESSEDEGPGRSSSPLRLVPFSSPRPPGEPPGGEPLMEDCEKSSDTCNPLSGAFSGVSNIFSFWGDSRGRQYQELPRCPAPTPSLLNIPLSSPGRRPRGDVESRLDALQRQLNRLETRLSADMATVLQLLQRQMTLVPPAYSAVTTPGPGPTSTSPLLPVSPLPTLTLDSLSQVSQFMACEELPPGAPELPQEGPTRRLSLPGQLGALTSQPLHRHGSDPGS

`O=C(NCCN1CCC(F)(F)CC1)Nc1ccc(OC2CC(N3CCCCC3)C2)cc1` (stereo not drawn) [BIOS-B-18, 1-(2-(4,4-difluoropiperidin-1-yl)ethyl)-3-(4-(3-(piperidin-1-yl)cyclobutoxy)phenyl)urea]: the inhibition at 10 µM in data set [1] was -0.65%. Further, in data set [2], the “number of histamine-induced scratched in mice” value was “reduced”, the “antipruritic effect compared with positive control dexamethasone” value is listed as “more effective than the positive control” and the “Inhibition Rate (%) of number of scratches” value came out at 55.0%. Moreover, in data set [3], the inhibition at 0.005 µM is 99.7% and the inhibition at 0.05 µM is 99.9%.

`O=C(CN1CCN(C2CCC2)CC1)Nc1ccc(OC2CC(N3CCCCC3)C2)cc1` (stereo not drawn) [BIOS-B-12, 2-(4-cyclobutylpiperazin-1-yl)-N-(4-(3-(piperidin-1-yl)cyclobutoxy)phenyl)acetamide]: the “mechanical withdrawal thresholds vs model group” value in data set [4] (0.3 mg/kg single dose by gavage, 1 h to 2 h after administration, P<0.05, FIG. 1) was “significantly different”. In addition, the “mechanical withdrawal thresholds vs model group” value in data set [4] (1 mg/kg single dose by gavage, 0.5 h to 6 h after administration, P<0.01, FIG. 1) was “significantly different”. For the same compound, the “mechanical withdrawal thresholds vs model group” value in data set [4] (3 mg/kg single dose by gavage, 0.5 h to 24 h after administration, P<0.01, FIG. 1) is “significantly different”. Besides, in data set [4] (setting [5]), the “level of analgesia compared with pregabalin” value is listed as “superior to that of pregabalin” and the “period of analgesia time compared with pregabalin” value is given as “longer period of analgesia time”. Moreover, in data set [4] (single dose at 3, 1 and 0.3 mg/kg, FIG. 1), the “mechanical withdrawal thresholds in the CCI model rats, dose dependence” value was “dose-dependently increasing”. For the same compound, the inhibition at 10 µM in data set [1] came to 2.06%. Besides, in data set [2], the “number of histamine-induced scratched in mice” value is on record as “reduced”, the “antipruritic effect compared with positive control dexamethasone” value is given as “more effective than the positive control” and the “Inhibition Rate (%) of number of scratches” value amounted to 36.6%. Also, in data set [3], the inhibition at 0.005 µM amounted to 99.1% and the inhibition at 0.05 µM was determined as 98.8%.

The record behind these values is patent US20250179040A1, “HISTAMINE H3 RECEPTOR ANTAGONISTS AND THEIR PHARMACEUTICAL USES” (HANGZHOU BIO-SINCERITY PHARMA-TECH CO., LTD., priority 2022, published 2025).
